Results reported in ChEMBL document CHEMBL1134048, “Novel antitumor artemisinin derivatives targeting G1 phase of the cell cycle” (Bioorg Med Chem Lett, 2001).

How the values were obtained:
[1] = test system: A549; assay: In vitro inhibitory concentration required against human lung A549 carcinoma cells proliferation; format: functional, cell-based
[2] = test system: P388; assay: In vitro inhibitory concentration required against murine P388 leukemic cells proliferation; format: functional, cell-based; details: Mus musculus
[3] = test system: P388; assay: Ability to induce apoptosis after 21 hrs of incubation of P388 cells; format: functional, cell-based; details: Mus musculus
[4] = test system: P388; assay: Percent of cells in sub-G1 phase (apoptotic cells) of cell cycle was determined after 21 hrs of incubation of P388 cells; format: functional, Mus musculus
[5] = test system: P388; assay: Percent of cells in G1 phase of cell cycle was determined after 21 hrs of incubation of P388 cells; format: functional, Mus musculus
[6] = test system: P388; assay: Percent of cells in G1 phase of cell cycle, was determined after 21 hrs of incubation of P388 cells; format: functional, Mus musculus
[7] = test system: NIH3T3; assay: In vitro inhibitory concentration required against NIH3T3 cells proliferation; format: functional, cell-based; details: Mus musculus

| Structure (SMILES) | IC50 [1] | IC50 [2] | Concentration [3] | Apoptosis [4] | G1 [5] | G1 [6] | IC50 [7] |
| --- | --- | --- | --- | --- | --- | --- | --- |
| C[C@@H]1CCC2[C@@H](C)[C@@H](O[C@H](C#N)c3ccccc3)O[C@@H]3O[C@]4(C)CCC1[C@@]23OO4 (stereo partly specified) | 0.662 µM | 0.048 µM | 100 nM | 45% | 61% |  |  |
| C[C@@H]1CCC2[C@@H](C)[C@@H](OC(C#N)c3ccc(Br)cc3)O[C@@H]3O[C@]4(C)CCC1[C@@]23O4 (stereo partly specified) | 42 µM | 24.2 µM |  |  |  |  |  |
| C[C@@H]1CCC2[C@@H](C)[C@@H](O[C@H](C#N)c3ccc(Br)cc3)O[C@@H]3O[C@]4(C)CCC1[C@@]23OO4 (stereo partly specified) | 0.039 µM | 0.011 µM | 25 nM | 51% |  | 63% | 5120 µM |
| C[C@@H]1CCC2[C@@H](C)[C@@H](O[C@@H](C#N)c3ccccc3)O[C@@H]3O[C@]4(C)CCC1[C@@]23OO4 (stereo partly specified) | 1.23 µM | 0.238 µM | 500 nM | 53% |  | 67% |  |
| C[C@@H]1CCC2[C@@H](C)[C@@H](OCC#N)O[C@@H]3O[C@]4(C)CCC1[C@@]23OO4 (stereo partly specified) | 79.4 µM | 1.85 µM | 10000 nM | 7% |  | 65% |  |
| CC[C@]1(O)C[C@H]2CN(CCc3c([nH]c4ccccc34)[C@@](C(=O)OC)(c3cc4c(cc3OC)N(C=O)[C@H]3[C@@](O)(C(=O)OC)[C@H](OC(C)=O)[C@]5(CC)C=CCN6CC[C@]43[C@@H]65)C2)C1 [VINCRISTINE] | 0.018 µM | 0.002 µM |  |  |  |  |  |
| C[C@@H]1CCC2[C@@H](C)[C@@H](O[C@@H](C#N)c3ccc(Br)cc3)O[C@@H]3O[C@]4(C)CCC1[C@@]23OO4 (stereo partly specified) | 0.047 µM | 0.012 µM | 25 nM | 49% |  | 62% | 3050 µM |
